{"source": "ChEMBL document CHEMBL2073891", "about": "“Interaction of digoxin with antihypertensive drugs via MDR1” (Life Sci, 2002)", "format_in_all_cases": "functional, cell-based", "settings_in_all_cases": "pig, llc-pk1, 50 µM", "key": {"[1]": {"biological_target": "T1, ATP-dependent translocase ABCB1 (Homo sapiens, UniProt P08183)", "T1 sequence (P08183 whole entry)": "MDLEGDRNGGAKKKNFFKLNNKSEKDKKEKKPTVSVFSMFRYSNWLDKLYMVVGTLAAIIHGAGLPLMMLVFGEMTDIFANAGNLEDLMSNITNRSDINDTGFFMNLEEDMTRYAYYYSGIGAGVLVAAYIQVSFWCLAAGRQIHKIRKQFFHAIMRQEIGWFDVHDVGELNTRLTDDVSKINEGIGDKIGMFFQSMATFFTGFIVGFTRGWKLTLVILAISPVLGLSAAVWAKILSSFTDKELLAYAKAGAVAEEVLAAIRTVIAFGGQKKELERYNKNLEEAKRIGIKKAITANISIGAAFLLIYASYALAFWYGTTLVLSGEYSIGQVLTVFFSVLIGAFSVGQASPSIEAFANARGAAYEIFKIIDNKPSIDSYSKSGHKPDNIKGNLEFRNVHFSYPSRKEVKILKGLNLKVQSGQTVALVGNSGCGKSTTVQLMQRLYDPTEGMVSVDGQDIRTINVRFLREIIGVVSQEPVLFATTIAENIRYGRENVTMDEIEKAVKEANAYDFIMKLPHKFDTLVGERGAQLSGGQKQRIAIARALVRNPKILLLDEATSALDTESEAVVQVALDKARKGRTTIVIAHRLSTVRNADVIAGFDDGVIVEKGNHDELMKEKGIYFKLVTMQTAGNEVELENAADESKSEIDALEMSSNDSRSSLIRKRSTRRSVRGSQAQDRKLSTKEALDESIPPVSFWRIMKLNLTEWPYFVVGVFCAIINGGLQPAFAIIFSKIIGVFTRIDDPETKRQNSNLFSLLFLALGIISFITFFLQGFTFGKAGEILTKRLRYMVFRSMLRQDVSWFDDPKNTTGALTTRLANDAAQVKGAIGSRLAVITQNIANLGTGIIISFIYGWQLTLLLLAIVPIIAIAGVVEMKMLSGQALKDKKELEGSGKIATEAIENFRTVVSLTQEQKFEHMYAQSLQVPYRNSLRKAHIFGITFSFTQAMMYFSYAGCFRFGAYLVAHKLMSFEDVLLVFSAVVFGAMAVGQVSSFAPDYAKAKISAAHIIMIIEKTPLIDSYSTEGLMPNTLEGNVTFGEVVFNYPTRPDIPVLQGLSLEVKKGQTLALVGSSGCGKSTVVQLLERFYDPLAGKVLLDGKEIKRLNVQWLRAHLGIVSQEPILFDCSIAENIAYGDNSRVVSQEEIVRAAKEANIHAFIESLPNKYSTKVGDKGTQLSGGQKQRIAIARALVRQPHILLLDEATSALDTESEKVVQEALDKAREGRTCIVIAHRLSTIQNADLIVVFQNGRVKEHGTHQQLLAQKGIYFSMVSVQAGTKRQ", "experiment": "TP_TRANSPORTER: inhibition of Digoxin transepithelial transport (basal to apical)(Digoxin: 0.1 uM, Atenolol: 50 uM) in MDR1-expressing LLC-PK1 cells"}, "[2]": {"biological_target": "T1, ATP-dependent translocase ABCB1", "experiment": "TP_TRANSPORTER: inhibition of Digoxin transepithelial transport (basal to apical)(Digoxin: 0.1 uM, Candesartan cilexetil: 50 uM) in MDR1-expressing LLC-PK1 cells"}, "[3]": {"biological_target": "T1, ATP-dependent translocase ABCB1", "experiment": "TP_TRANSPORTER: inhibition of Digoxin transepithelial transport (basal to apical)(Digoxin: 0.1 uM, Candesartan: 50 uM) in MDR1-expressing LLC-PK1 cells"}, "[4]": {"biological_target": "T1, ATP-dependent translocase ABCB1", "experiment": "TP_TRANSPORTER: inhibition of Digoxin transepithelial transport (basal to apical)(Digoxin: 0.1 uM, Captopril: 50 uM) in MDR1-expressing LLC-PK1 cells"}, "[5]": {"biological_target": "T1, ATP-dependent translocase ABCB1", "experiment": "TP_TRANSPORTER: inhibition of Digoxin transepithelial transport (basal to apical)(Digoxin: 0.1 uM, Carvedilol: 50 uM) in MDR1-expressing LLC-PK1 cells"}, "[6]": {"biological_target": "T1, ATP-dependent translocase ABCB1", "experiment": "TP_TRANSPORTER: inhibition of Digoxin transepithelial transport (basal to apical)(Digoxin: 0.1 uM, Cilazaprilat: 50 uM) in MDR1-expressing LLC-PK1 cells"}, "[7]": {"biological_target": "T1, ATP-dependent translocase ABCB1", "experiment": "TP_TRANSPORTER: inhibition of Digoxin transepithelial transport (basal to apical)(Digoxin: 0.1 uM, Cilazapril: 50 uM) in MDR1-expressing LLC-PK1 cells"}, "[8]": {"biological_target": "T1, ATP-dependent translocase ABCB1", "experiment": "TP_TRANSPORTER: inhibition of Digoxin transepithelial transport (basal to apical)(Digoxin: 0.1 uM, Delapril: 50 uM) in MDR1-expressing LLC-PK1 cells"}, "[9]": {"biological_target": "T1, ATP-dependent translocase ABCB1", "experiment": "TP_TRANSPORTER: inhibition of Digoxin transepithelial transport (basal to apical)(Digoxin: 0.1 uM, Doxazosin: 50 uM) in MDR1-expressing LLC-PK1 cells"}, "[10]": {"biological_target": "T1, ATP-dependent translocase ABCB1", "experiment": "TP_TRANSPORTER: inhibition of Digoxin transepithelial transport (basal to apical)(Digoxin: 0.1 uM, Enalapril: 50 uM) in MDR1-expressing LLC-PK1 cells"}, "[11]": {"biological_target": "T1, ATP-dependent translocase ABCB1", "experiment": "TP_TRANSPORTER: inhibition of Digoxin transepithelial transport (basal to apical) (Digoxin: 0.1 uM, Lisinopril: 50 uM) in MDR1-expressing LLC-PK1 cells"}, "[12]": {"biological_target": "T1, ATP-dependent translocase ABCB1", "experiment": "TP_TRANSPORTER: inhibition of Digoxin transepithelial transport (basal to apical) (Digoxin: 0.1 uM, Losartan: 50 uM) in MDR1-expressing LLC-PK1 cells"}, "[13]": {"biological_target": "T1, ATP-dependent translocase ABCB1", "experiment": "TP_TRANSPORTER: inhibition of Digoxin transepithelial transport (basal to apical)(Digoxin: 0.1 uM, Metprolol: 50 uM) in MDR1-expressing LLC-PK1 cells"}, "[14]": {"biological_target": "T1, ATP-dependent translocase ABCB1", "experiment": "TP_TRANSPORTER: inhibition of Digoxin transepithelial transport (basal to apical) (Digoxin: 0.1 uM, Perindoprilat: 50 uM) in MDR1-expressing LLC-PK1 cells"}, "[15]": {"biological_target": "T1, ATP-dependent translocase ABCB1", "experiment": "TP_TRANSPORTER: inhibition of Digoxin transepithelial transport (basal to apical) (Digoxin: 0.1 uM, Perindopril: 50 uM) in MDR1-expressing LLC-PK1 cells"}, "[16]": {"biological_target": "T1, ATP-dependent translocase ABCB1", "experiment": "TP_TRANSPORTER: inhibition of Digoxin transepithelial transport (basal to apical)(Digoxin: 0.1 uM, Temocaprilat: 50 uM) in MDR1-expressing LLC-PK1 cells"}, "[17]": {"biological_target": "T1, ATP-dependent translocase ABCB1", "experiment": "TP_TRANSPORTER: inhibition of Digoxin transepithelial transport (basal to apical)(Digoxin: 0.1 uM, Temocapril: 50 uM) in MDR1-expressing LLC-PK1 cells"}}}
{"smiles": "CC(C)NCC(O)COc1ccc(CC(N)=O)cc1", "note": "(configuration not stated) [ATENOLOL]", "values": [{"measurement": "Activity", "setting": "[1]", "result": "is not an inhibitor [-]"}]}
{"smiles": "CCOc1nc2cccc(C(=O)OC(C)OC(=O)OC3CCCCC3)c2n1Cc1ccc(-c2ccccc2-c2nnn[nH]2)cc1", "note": "(configuration not stated) [CANDESARTAN CILEXETIL]", "values": [{"measurement": "Activity", "setting": "[2]", "result": "is not an inhibitor [-]"}]}
{"smiles": "CCOc1nc2cccc(C(=O)O)c2n1Cc1ccc(-c2ccccc2-c2nnn[nH]2)cc1", "note": "[CANDESARTAN]", "values": [{"measurement": "Activity", "setting": "[3]", "result": "is not an inhibitor [-]"}]}
{"smiles": "C[C@H](CS)C(=O)N1CCC[C@H]1C(=O)O", "note": "[CAPTOPRIL]", "values": [{"measurement": "Activity", "setting": "[4]", "result": "is not an inhibitor [-]"}]}
{"smiles": "COc1ccccc1OCCNCC(O)COc1cccc2[nH]c3ccccc3c12", "note": "(configuration not stated) [CARVEDILOL]", "values": [{"measurement": "Activity", "setting": "[5]", "result": "inhibitor [+]"}]}
{"smiles": "O=C(O)[C@H](CCc1ccccc1)N[C@H]1CCCN2CCC[C@@H](C(=O)O)N2C1=O", "note": "[CILAZAPRILAT]", "values": [{"measurement": "Activity", "setting": "[6]", "result": "is not an inhibitor [-]"}]}
{"smiles": "CCOC(=O)[C@H](CCc1ccccc1)N[C@H]1CCCN2CCC[C@@H](C(=O)O)N2C1=O", "note": "[CILAZAPRIL]", "values": [{"measurement": "Activity", "setting": "[7]", "result": "is not an inhibitor [-]"}]}
{"smiles": "CCOC(=O)[C@H](CCc1ccccc1)N[C@@H](C)C(=O)N(CC(=O)O)C1Cc2ccccc2C1", "note": "[DELAPRIL]", "values": [{"measurement": "Activity", "setting": "[8]", "result": "is not an inhibitor [-]"}]}
{"smiles": "COc1cc2nc(N3CCN(C(=O)C4COc5ccccc5O4)CC3)nc(N)c2cc1OC", "note": "(configuration not stated) [DOXAZOSIN]", "values": [{"measurement": "Activity", "setting": "[9]", "result": "inhibitor [+]"}]}
{"smiles": "CCOC(=O)[C@H](CCc1ccccc1)N[C@@H](C)C(=O)N1CCC[C@H]1C(=O)O", "note": "[ENALAPRIL]", "values": [{"measurement": "Activity", "setting": "[10]", "result": "is not an inhibitor [-]"}]}
{"smiles": "NCCCC[C@H](N[C@@H](CCc1ccccc1)C(=O)O)C(=O)N1CCC[C@H]1C(=O)O", "note": "[LISINOPRIL ANHYDROUS]", "values": [{"measurement": "Activity", "setting": "[11]", "result": "is not an inhibitor [-]"}]}
{"smiles": "CCCCc1nc(Cl)c(CO)n1Cc1ccc(-c2ccccc2-c2nn[nH]n2)cc1", "note": "[LOSARTAN]", "values": [{"measurement": "Activity", "setting": "[12]", "result": "is not an inhibitor [-]"}]}
{"smiles": "COCCc1ccc(OCC(O)CNC(C)C)cc1", "note": "(configuration not stated) [METOPROLOL]", "values": [{"measurement": "Activity", "setting": "[13]", "result": "is not an inhibitor [-]"}]}
{"smiles": "CCC[C@H](N[C@@H](C)C(=O)N1[C@H](C(=O)O)C[C@@H]2CCCC[C@@H]21)C(=O)O", "note": "[PERINDOPRILAT]", "values": [{"measurement": "Activity", "setting": "[14]", "result": "is not an inhibitor [-]"}]}
{"smiles": "CCC[C@H](N[C@@H](C)C(=O)N1[C@H](C(=O)O)C[C@@H]2CCCC[C@@H]21)C(=O)OCC", "note": "[PERINDOPRIL]", "values": [{"measurement": "Activity", "setting": "[15]", "result": "is not an inhibitor [-]"}]}
{"smiles": "O=C(O)CN1C[C@@H](c2cccs2)SC[C@H](N[C@@H](CCc2ccccc2)C(=O)O)C1=O", "note": "[TEMOCAPRILAT]", "values": [{"measurement": "Activity", "setting": "[16]", "result": "is not an inhibitor [-]"}]}
{"smiles": "CCOC(=O)[C@H](CCc1ccccc1)N[C@H]1CS[C@H](c2cccs2)CN(CC(=O)O)C1=O", "note": "[TEMOCAPRIL]", "values": [{"measurement": "Activity", "setting": "[17]", "result": "is not an inhibitor [-]"}]}
